{
  "source": "patent US9937227B2",
  "about": "“Humanin, analogs and cancer treatment methods and uses thereof” (LOS ANGELES BIOMEDICAL RESEARCH INSTITUTE AT HARBOR-UCLA …, priority 2014, dated 2018)",
  "key": {"[1]": {"system": "germ cells in seminiferous tubules", "assay": "DOX-induced germ cell apoptosis in mouse seminiferous tubule cultures ex vivo (TUNEL)", "format": "cell-based", "details": "12 hours", "method": "A total of 15 young adult (12-13 week-old) mice were used for these ex vivo studies. The animals were sacrificed with a 5% pentobarbital (200 mg/Kg) IP injection. Testes were dissected and after removing the tunica albuginea, seminiferous tubules isolated from testes were cut into small segments under a dissecting microscope and light and dark segments were separated by dissection. Ten to twelve segments were placed (2 mm in length) in each well on a six well plate with 2 ml serum free Ham F-10 culture medium (GIBCO, Life Technologies, Thermo Fisher Scientific Corp., Carlsbad, Calif.) with the following treatments: control (Con, n=10), heat (43° C., 15 minutes, used as a positive control, n=10); HN 10 μg/mL (n=9); DOX 10 mcM (Dox10, n=10); and DOX 10 mcM+Humanin 10 μg/mL (Dox10+HN, n=10). For these experiments, n represents the total number of times the treatment was repeated using different animals. After 12 hours of incubation at 34° C. the seminiferous tubules from each treatment group were used to make “squashed” seminiferous tubule samples on a slide for TUNEL (TdT-mediated dUTP nick-end labeling) assay to detect germ cell apoptosis (Erkkila, et al., 1997; Toppari & Parvinen, 1985). To quantify the rate of germ cell apoptosis under a light microscope at 400× magnification, a square grid fitted within the eyepiece provided a reference area of 62,500 μm^2. The TUNEL positive apoptotic germ cells within the frame of grid were counted in 4 segments of seminiferous tubules in each group. The incidence of germ cell apoptosis was expressed as the number of apoptotic germ cells per mm^2.\nA total of 15 mice were used for ex vivo studies. The animals were sacrificed and seminiferous tubules isolated from testes were cut into small segments under a dissecting microscope to identify light (early stages I-IV and late stages XI-XII) of the seminiferous epithelium) and dark (middle stages VII-VIII) segments. […] To quantify the rate of germ cell apoptosis, the squashed segments of seminiferous tubules were examined with an American Optical Microscope (Scientific Instruments, Buffalo, N.Y.) with a 40× objective and a 10× eyepiece lens. […] The TUNEL positive apoptotic germ cells within the frame of grid were counted in 4 segments of seminiferous tubules in each group. The incidence of germ cell apoptosis was expressed as the number of apoptotic germ cells per mm^2."}, "male germ cells [2]": {"system": "male germ cells", "format": "in vivo", "details": "single IP; HN, HN-S7A, HN-C8P, HN-L12A 40 mg/Kg BW; HNG, HNG-F6A 5 mg/Kg BW; 24 hours", "method": "For the HN analog experiments, male mice were divided into seven groups (n=4-5 per group) and received one of the following treatments and sacrificed after 24 hours: 1) vehicle (control); 2) a single intra-peritoneal (IP) injection of HN peptide [HN, 40 mg/Kg body weight (BW)]; 3) a single IP injection of CP (CP, 200 mg/Kg BW); 4) IP injection of CP and HN (CP+HN); 5) a single IP injection of each HN analog (HNG 5 mg/Kg BW, HNG-F6A 5 mg/Kg BW, HN-S7A 40 mg/Kg BW, HN-C8P 40 mg/Kg BW, or HN-L12A 40 mg/Kg BW); 6) IP injection of CP and each HN analog (CP+HNG, HNG-F6A, HN-S7A, HN-C8P, or HN-L12A); and 7) IP injection of CP+HN+HN analog (HN-S7A, HN-C8P, or HN-L12A; to assess whether the analogs has enhancing or inhibitory effect on HN).\nTo facilitate testicular fixation by using a whole-body perfusion technique, all animals were injected with heparin (130 IU/100 g BW, IP) 15 min before a lethal injection of sodium pentobarbital (200 mg/kg BW, IP) (Lue Y H, et al., 1999). One testis was removed and weighed after perfusion with saline. Portions of testicular parenchyma were snap frozen in liquid nitrogen, and stored at −80 C for Western blotting. The other testis was fixed by vascular perfusion with Bouin's solution, and processed with routine paraffin embedding for in situ detection of apoptosis.\nDetection of apoptotic cells was performed in Bouin's'-fixed, paraffin-embedded testicular sections by the terminal deoxynucleotidyl transferase (TdT)-mediated deoxy-UTP nick end labeling (TUNEL) technique (Sinha Hikim A P, et al., 1997) using an ApopTag-peroxidase kit (Chemicon International, Inc., Temecula, Calif.). Enumeration of the Sertoli cell nuclei with distinct nucleoli and apoptotic germ cell population was quantified at stages I-IV (early stages), stages VII-VIII (middle stages) and stages XI-XII (late stages) of the seminiferous epithelial cycle using an Olympus BH-2 microscope (New Hyde Park, N.Y.). Stages were identified according to the criteria proposed by Russell et al for paraffin sections (Russell L, 1977). The rate of germ cell apoptosis (apoptotic index, AI) was expressed as the number of apoptotic germ cells per Sertoli cells (Sinha Hikim A P, et al., 1997)."}, "male germ cells [3]": {"system": "male germ cells", "details": "testicular cross sections, 24 hours; HN 40 mg/Kg or CP 200 mg/Kg single IP", "method": "Young adult mice (12-13 weeks) were randomly divided into 4 groups with 4 or 5 mice per group and received an IP injection: control (Con) (saline), HN (40 mg/Kg BW), CP (200 mg/Kg BW), and the combination of CP+HN. These experiments were repeated four times. In the CP+HN group, mice received an injection of HN followed by an injection of CP about 15 minutes later. Twenty-four hours after injections animals were sacrificed using 5% pentobarbital (200 mg/kg BW) IP injection. Blood was collected and one testis was removed, weighed and frozen in liquid nitrogen. The mouse was next perfused with saline and then subsequently perfuse-fixed with Bouin's solution as previously described and apoptosis was assessed by TUNEL assay (Lue, et al., 2009).\nFor detection of apoptosis in testicular sections, the paraffin embedded testis tissue was cut into 5 micron sections and stained with the TdT-mediated dUTP nick-end labeling assay (TUNEL Apoptosis Detection Kit, Millipore, Billerica, Mass.) to detect apoptosis of germ cells in the testis (Lue, et al., 2009). Testicular sections assayed by TUNEL were examined under a light microscope and the apoptotic germ cells were blindly and manually counted. The seminiferous tubules in the testis section under the microscope were grouped as stages IX-IV (early-late stages of spermatogenesis) and V-VIII (middle stages of spermatogenesis). Germ cell apoptosis was quantified as the number of seminiferous tubules containing apoptotic spermatogonia, spermatoctyes, round spermatids and spermatozoa per 100 seminiferous tubules (Drumond, et al., 2011)."}, "testosterone": {"system": "testosterone", "details": "with or without EDS pre-treatment"}},
  "note": "Structures can show the parent of a compound that is named as a salt. Peptide text beside a SMILES is read from it.",
  "data": [
    {"smiles": "COc1cccc2c1C(=O)c1c(O)c3c(c(O)c1C2=O)C[C@@](O)(C(=O)CO)C[C@@H]3O[C@H]1C[C@H](N)[C@H](O)[C@H](C)O1", "note": "[DOX, doxorubicin hydrochloride]", "values": [
      {"measurement": "germ cell apoptosis compared with control", "setting": "[1]; HN 10 μg/mL alone or DOX 10 μM (high dose) alone, hydrochloride", "value": "significantly higher number of apoptotic germ cells"},
      {"measurement": "germ cell apoptosis compared with control", "setting": "[1]; HN 10 μg/mL alone or DOX 10 μM (high dose) alone, listed as doxorubicin, hydrochloride", "value": "significantly increased apoptosis"},
      {"measurement": "germ cell apoptosis compared with control", "setting": "[1]; doxorubicin 1 μM (low dose)", "value": "increased apoptosis but did not reach statistical difference"}
    ]},
    {"smiles": "CC[C@H](C)[C@H](NC(=O)[C@H](CCC(=O)O)NC(=O)[C@H](CO)NC(=O)[C@@H](NC(=O)[C@H](CC(C)C)NC(=O)[C@H](CC(C)C)NC(=O)[C@H](CC(C)C)NC(=O)[C@H](CC(C)C)NC(=O)[C@@H]1CCCN1C(=O)[C@H](CO)NC(=O)[C@H](Cc1ccccc1)NC(=O)CNC(=O)[C@H](CCCNC(=N)N)NC(=O)[C@@H]1CCCN1C(=O)[C@H](C)NC(=O)[C@@H](N)CCSC)[C@@H](C)O)C(=O)N[C@@H](CC(=O)O)C(=O)N[C@@H](CC(C)C)C(=O)N1CCC[C@H]1C(=O)N[C@H](C(=O)N[C@@H](CCCCN)C(=O)N[C@@H](CCCNC(=N)N)C(=O)N[C@@H](CCCNC(=N)N)C(=O)N[C@@H](C)C(=O)O)C(C)C", "note": "[HN-C8P] (H-MAPRGFSPLLLLTSEIDLPVKRRA-OH; N-terminus and C-terminus assumed)", "values": [
      {"measurement": "spontaneous germ cell apoptosis, peptide alone", "setting": "male germ cells [2]", "value": "did not change"}
    ]},
    {"smiles": "CC[C@H](C)[C@H](NC(=O)[C@H](CCC(=O)O)NC(=O)[C@H](CO)NC(=O)[C@@H](NC(=O)[C@H](C)NC(=O)[C@H](CC(C)C)NC(=O)[C@H](CC(C)C)NC(=O)[C@H](CC(C)C)NC(=O)[C@H](CS)NC(=O)[C@H](CO)NC(=O)[C@H](Cc1ccccc1)NC(=O)CNC(=O)[C@H](CCCNC(=N)N)NC(=O)[C@@H]1CCCN1C(=O)[C@H](C)NC(=O)[C@@H](N)CCSC)[C@@H](C)O)C(=O)N[C@@H](CC(=O)O)C(=O)N[C@@H](CC(C)C)C(=O)N1CCC[C@H]1C(=O)N[C@H](C(=O)N[C@@H](CCCCN)C(=O)N[C@@H](CCCNC(=N)N)C(=O)N[C@@H](CCCNC(=N)N)C(=O)N[C@@H](C)C(=O)O)C(C)C", "note": "[HN-L12A] (H-MAPRGFSCLLLATSEIDLPVKRRA-OH; N-terminus and C-terminus assumed)", "values": [
      {"measurement": "spontaneous germ cell apoptosis, peptide alone", "setting": "male germ cells [2]", "value": "did not change"}
    ]},
    {"smiles": "CC[C@H](C)[C@H](NC(=O)[C@H](CCC(=O)O)NC(=O)[C@H](CO)NC(=O)[C@@H](NC(=O)[C@H](CC(C)C)NC(=O)[C@H](CC(C)C)NC(=O)[C@H](CC(C)C)NC(=O)[C@H](CC(C)C)NC(=O)[C@H](CS)NC(=O)[C@H](C)NC(=O)[C@H](Cc1ccccc1)NC(=O)CNC(=O)[C@H](CCCNC(=N)N)NC(=O)[C@@H]1CCCN1C(=O)[C@H](C)NC(=O)[C@@H](N)CCSC)[C@@H](C)O)C(=O)N[C@@H](CC(=O)O)C(=O)N[C@@H](CC(C)C)C(=O)N1CCC[C@H]1C(=O)N[C@H](C(=O)N[C@@H](CCCCN)C(=O)N[C@@H](CCCNC(=N)N)C(=O)N[C@@H](CCCNC(=N)N)C(=O)N[C@@H](C)C(=O)O)C(C)C", "note": "[HN-S7A] (H-MAPRGFACLLLLTSEIDLPVKRRA-OH; N-terminus and C-terminus assumed)", "values": [
      {"measurement": "spontaneous germ cell apoptosis, peptide alone", "setting": "male germ cells [2]", "value": "did not change"}
    ]},
    {"smiles": "CC[C@H](C)[C@H](NC(=O)[C@H](CCC(=O)O)NC(=O)CNC(=O)[C@@H](NC(=O)[C@H](CC(C)C)NC(=O)[C@H](CC(C)C)NC(=O)[C@H](CC(C)C)NC(=O)[C@H](CC(C)C)NC(=O)[C@H](CS)NC(=O)[C@H](CO)NC(=O)[C@H](C)NC(=O)CNC(=O)[C@H](CCCNC(=N)N)NC(=O)[C@@H]1CCCN1C(=O)[C@H](C)NC(=O)[C@@H](N)CCSC)[C@@H](C)O)C(=O)N[C@@H](CC(=O)O)C(=O)N[C@@H](CC(C)C)C(=O)N1CCC[C@H]1C(=O)N[C@H](C(=O)N[C@@H](CCCCN)C(=O)N[C@@H](CCCNC(=N)N)C(=O)N[C@@H](CCCNC(=N)N)C(=O)N[C@@H](C)C(=O)O)C(C)C", "note": "[HNG-F6A] (H-MAPRGASCLLLLTGEIDLPVKRRA-OH; N-terminus and C-terminus assumed)", "values": [
      {"measurement": "spontaneous germ cell apoptosis, peptide alone", "setting": "male germ cells [2]", "value": "did not change"}
    ]},
    {"smiles": "CC[C@H](C)[C@H](NC(=O)[C@H](CCC(=O)O)NC(=O)[C@H](CO)NC(=O)[C@@H](NC(=O)[C@H](CC(C)C)NC(=O)[C@H](CC(C)C)NC(=O)[C@H](CC(C)C)NC(=O)[C@H](CC(C)C)NC(=O)[C@H](CS)NC(=O)[C@H](CO)NC(=O)[C@H](Cc1ccccc1)NC(=O)CNC(=O)[C@H](CCCNC(=N)N)NC(=O)[C@@H]1CCCN1C(=O)[C@H](C)NC(=O)[C@@H](N)CCSC)[C@@H](C)O)C(=O)N[C@@H](CC(=O)O)C(=O)N[C@@H](CC(C)C)C(=O)N1CCC[C@H]1C(=O)N[C@H](C(=O)N[C@@H](CCCCN)C(=O)N[C@@H](CCCNC(=N)N)C(=O)N[C@@H](CCCNC(=N)N)C(=O)N[C@@H](C)C(=O)O)C(C)C", "note": "[HN]", "values": [
      {"measurement": "germ cell apoptosis compared to control", "setting": "male germ cells [3]", "value": "no significant effect"},
      {"measurement": "germ cell apoptosis compared with control", "setting": "[1]; HN 10 μg/mL alone or DOX 10 μM (high dose) alone", "value": "no significant effect"},
      {"measurement": "intratesticular testosterone levels", "setting": "testosterone", "value": "no significant effects"},
      {"measurement": "serum testosterone levels", "setting": "testosterone", "value": "no significant effects"},
      {"measurement": "spontaneous germ cell apoptosis, peptide alone", "setting": "male germ cells [2]", "value": "did not change"}
    ]}
  ]
}
